Results taken from patent publication US12281079B2, “Quinoline derivatives, processes for their preparation and uses thereof for the treatment of cancer” (Lead Discovery Center GmbH, priority 2019, dated 2025).

Tests used:
[1] = system: mitochondrial transcription (7S RNA) in HeLa cells; assay: Quantitative real time-PCR assay of inhibition of mitochondrial transcription (7S RNA) in HeLa cells; type: cell-based; conditions: Homo sapiens, 4 h compound incubation, according to Example 5, read-out: cellular qPCR assay
Method in brief: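 HeLa cells were exposed to compound dilution series or DMSO for 4 h, then RNA was extracted, normalized and reverse-transcribed. TaqMan qRT-PCR measured short-lived 7S RNA, with POLRMT as nuclear-transcription readout and TBP as housekeeping gene. Biological triplicates were analyzed by ΔΔCt and reported as Rq % (2−ΔΔCt).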

[2] = molecular target: mitochondrial RNA polymerase (POLRMT) (Mus musculus, UniProt Q8BKF1); assay: Homogeneous TR-FRET assay for mitochondrial transcription activity; type: biochemical; conditions: homogeneous TR-FRET assay according to Example 4
Sequence of mitochondrial RNA polymerase (POLRMT) (Q8BKF1 42-1207): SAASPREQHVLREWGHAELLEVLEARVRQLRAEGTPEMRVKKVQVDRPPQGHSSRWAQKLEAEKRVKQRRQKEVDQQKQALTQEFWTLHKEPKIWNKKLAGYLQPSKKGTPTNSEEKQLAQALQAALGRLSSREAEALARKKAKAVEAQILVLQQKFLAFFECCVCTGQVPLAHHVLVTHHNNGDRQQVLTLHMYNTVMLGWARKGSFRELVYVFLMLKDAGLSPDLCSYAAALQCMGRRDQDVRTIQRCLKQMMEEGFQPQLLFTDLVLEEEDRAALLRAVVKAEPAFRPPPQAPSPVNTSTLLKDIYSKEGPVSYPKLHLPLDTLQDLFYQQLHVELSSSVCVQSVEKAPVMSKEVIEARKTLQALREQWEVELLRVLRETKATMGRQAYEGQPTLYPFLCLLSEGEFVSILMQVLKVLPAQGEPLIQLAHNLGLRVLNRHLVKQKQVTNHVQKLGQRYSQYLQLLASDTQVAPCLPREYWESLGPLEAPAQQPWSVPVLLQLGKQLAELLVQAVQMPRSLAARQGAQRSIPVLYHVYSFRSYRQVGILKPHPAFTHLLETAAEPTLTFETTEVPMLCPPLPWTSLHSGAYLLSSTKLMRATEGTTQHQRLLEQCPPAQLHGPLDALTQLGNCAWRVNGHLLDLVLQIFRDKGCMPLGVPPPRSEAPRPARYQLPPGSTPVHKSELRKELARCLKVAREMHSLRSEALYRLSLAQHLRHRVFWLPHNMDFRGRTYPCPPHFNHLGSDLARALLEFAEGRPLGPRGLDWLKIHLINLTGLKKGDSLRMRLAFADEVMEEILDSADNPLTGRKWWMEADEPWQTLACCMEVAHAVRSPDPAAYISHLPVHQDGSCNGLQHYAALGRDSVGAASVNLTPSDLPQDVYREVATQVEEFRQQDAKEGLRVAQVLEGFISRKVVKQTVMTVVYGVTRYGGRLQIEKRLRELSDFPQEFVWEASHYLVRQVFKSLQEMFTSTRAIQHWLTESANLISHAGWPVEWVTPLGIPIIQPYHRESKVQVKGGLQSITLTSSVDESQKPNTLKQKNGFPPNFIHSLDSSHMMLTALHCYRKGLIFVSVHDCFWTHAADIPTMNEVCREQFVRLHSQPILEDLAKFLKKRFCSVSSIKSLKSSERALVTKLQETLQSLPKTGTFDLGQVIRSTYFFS
Method in brief: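 Read-out is TR-FRET (ex 340, em 665 nm) from two adjacent labelled DNA probes annealing to the 407 bp transcript after EDTA/700 mM NaCl stop. Reaction: murine POLRMT, TFAM, TFB2M and LSP plasmid template, compound 10 μM or serial dilution, 10 min rt preincubation, 500 μM each nucleotide, 2 h rt.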

SMILES | IC50 [1] [nM] | IC50 [2] [nM]
CNC(=O)C[C@H]1CCCN(C(=O)[C@@H](C)Oc2ccc3c(-c4ccccc4Cl)cc(Cl)nc3c2)C1 [Compound 68, 2-[(3R)-1-[(2R)-2-[[2-chloro-4-(2-chlorophenyl)-7-quinolyl]oxy]propanoyl]-3-piperidyl]-N-methyl-acetamide] | 50 to 500 | 100 to 1000
C[C@@H](Oc1ccc2c(-c3ccccc3Cl)cc(F)nc2c1)C(=O)N1CCC[C@H](C(=O)O)C1 [Compound 12, (3S)-1-[(2R)-2-[[4-(2-chlorophenyl)-2-fluoro-7-quinolyl]oxy]propanoyl]piperidine-3-carboxylic acid] | < 10 | < 20
Cc1cc(F)cc(C)c1-c1ccnc2cc(O[C@H](C)C(=O)N3CCC[C@@](C)(C(=O)O)C3)ccc12 [Compound 175, (3R)-1-[(2R)-2-[[4-(4-fluoro-2,6-dimethyl-phenyl)-7-quinolyl]oxy]propanoyl]-3-methyl-piperidine-3-carboxylic acid] | < 10 | < 20
C[C@@H](Oc1ccc2c(-c3ccc(F)cc3Cl)ccnc2c1)C(=O)Nc1cccc(C(=O)O)c1 [Compound 26, 3-[[(2R)-2-[[4-(2-chloro-4-fluoro-phenyl)-7-quinolyl]oxy]propanoyl]amino]benzoic acid] | 50 to 500 | 20 to 100
C[C@@H](Oc1ccc2c(-c3ccc(F)cc3Cl)ccnc2c1)C(=O)N1CC(C)(C)NC(C)(C)C1 [Compound 215, (2R)-2-[[4-(2-chloro-4-fluoro-phenyl)-7-quinolyl]oxy]-1-(3,3,5,5-tetramethylpiperazin-1-yl)propan-1-one] | 50 to 500 | 100 to 1000
C[C@@H](Oc1ccc2c(-c3ccc(F)cc3Cl)ccnc2c1)C(=O)N1CC[C@H](C(=O)O)C1 [Compound 19, (3S)-1-[(2R)-2[[4-(2-chloro-4-fluoro-phenyl)-7-quinolyl]oxy]propanoyl]pyrrolidine-3-carboxylic acid] | 50 to 500 | 20 to 100
C[C@@H](Oc1ccc2c(-c3c(Cl)cccc3Cl)ccnc2c1)C(=O)N1CCC[C@H](C(=O)O)C1 [Compound 129, (3S)-1-[(2R)-2-[[4-(2,6-dichlorophenyl)-7-quinolyl]oxy]propanoyl]piperidine-3-carboxylic acid] | < 10 | < 20
CNC(=O)[C@H]1CCCN(C(=O)[C@@H](C)Oc2ccc3c(-c4ccc(F)cc4Cl)ccnc3c2)C1 [Compound 38, (3S)-1-[(2R)-2-[[4-(2-chloro-4-fluoro-phenyl)-7-quinolyl]oxy]propanoyl]-N-methyl-piperidine-3-carboxamide] | 10 to 50 | 100 to 1000
C[C@@H](Oc1ccc2c(-c3ccccc3Cl)ccnc2c1)C(=O)OC(C)(C)C [Compound 29, tert-butyl (2R)-2-[[4-(2-chlorophenyl)-7-quinolyl]oxy]propanoate] | < 10 | 100 to 1000
Cc1ccccc1-c1cc(Cl)nc2cc(O[C@H](C)C(=O)N3CCC[C@H](CC(=O)O)C3)ccc12 [Compound 21, 2-[(3R)-1-[(2R)-2-[[2-chloro-4-(o-tolyl)-7-quinolyl]oxy]propanoyl]-3-piperidyl]acetic acid] | 500 to 5000 | 20 to 100
CC(Oc1ccc2c(-c3ccc(F)cc3Cl)ccnc2n1)C(=O)N1CCC[C@H](C(=O)O)C1 (mixture of isomers) [Compound 62, (3S)-1-[2-[[5-(2-chloro-4-fluoro-phenyl)-1,8-naphthyridin-2-yl]oxy]propanoyl]piperidine-3-carboxylic acid] | 10 to 50 | 100 to 1000
CC(C)NC(=O)[C@@H](C)Oc1ccc2c(-c3ccc(F)cc3Cl)ccnc2c1 [Compound 61, (2R)-2-[[4-(2-chloro-4-fluoro-phenyl)-7-quinolyl]oxy]-N-isopropyl-propanamide] | 50 to 500 | 100 to 1000
C[C@@H](Oc1ccc2c(-c3ccccc3Cl)ccnc2c1)C(=O)N1CCCCC1 [Compound 53, (2R)-2-[[4-(2-chlorophenyl)-7-quinolyl]oxy]-1-(1-piperidyl)propan-1-one] | 10 to 50 | 100 to 1000
C[C@@H](Oc1ccc2c(-c3ccc(F)cc3Cl)ccnc2c1)C(=O)N1CCCCC1 [Compound 20, (2R)-2[[4-(2-chloro-4-fluoro-phenyl)-7-quinolyl]oxy]-1-(1-piperidyl)propan-1-one] | 10 to 50 | 20 to 100
Cc1cccc(C)c1-c1ccnc2cc(O[C@H](C)C(=O)N3CCC[C@@H](CC(=O)O)C3)ccc12 [Compound 5, 2-[(3S)-1-[(2R)-2-[[4-(2,6-dimethylphenyl)-7-quinolyl]oxy]propanoyl]-3-piperidyl]acetic acid] | < 10 | < 20
Cc1cc(F)cc(C)c1-c1ccnc2cc(O[C@H](C)C(=O)N3CCCC4(CC4C(=O)O)C3)ccc12 (mixture of isomers) [Compound 174, 5-[rac-(2R)-2-[[4-(4-fluoro-2,6-dimethyl-phenyl)-7-quinolyl]oxy]propanoyl]-5-azaspiro[2.5]octane-2-carboxylic acid] | < 10 | < 20
C[C@@H](Oc1ccc2c(-c3c(Cl)cc(F)cc3Cl)ccnc2c1)C(=O)N1CCCC(C2(C(=O)O)CC2)C1 (mixture of isomers) [Compound 196, 1-[1-[rac-(2R)-2-[[4-(2,6-dichloro-4-fluoro-phenyl)-7-quinolyl]oxy]propanoyl]-3-piperidyl]cyclopropanecarboxylic acid] | 10 to 50 | 20 to 100
Cc1ccccc1-c1ccnc2cc(O[C@H](C)C(=O)N3CCC[C@H](CC(=O)O)C3)ccc12 [Compound 13, 2-[(3R)-1-[(2R)-2-[[4-(o-tolyl)-7-quinolyl]oxy]propanoyl]-3-piperidyl]acetic acid] | 10 to 50 | 20 to 100
Cc1cc(F)cc(C)c1-c1ccnc2cc(O[C@H](C)C(=O)N3CCC4(CCNC4=O)CC3)ccc12 [Compound 181, 8-[(2R)-2-[[4-(4-fluoro-2,6-dimethyl-phenyl)-7-quinolyl]oxy]propanoyl]-2,8-diazaspiro[4.5]decan-1-one] | < 10 | < 20
C[C@H](Oc1ccc2c(-c3ccccc3Cl)ccnc2c1)C(=O)N1CCC[C@H](C(=O)O)C1 [Compound 78, (3S)-1-[(2S)-2-[[4-(2-chlorophenyl)-7-quinolyl]oxy]propanoyl]piperidine-3-carboxylic acid] | 500 to 5000 | 100 to 1000
C[C@@H](Oc1ccc2c(-c3ccc(F)cc3Cl)ccnc2c1)C(=O)N1CCC2(CCNC2=O)CC1 [Compound 205, 8-[(2R)-2-[[4-(2-chloro-4-fluoro-phenyl)-7-quinolyl]oxy]propanoyl]-2,8-diazaspiro[4.5]decan-1-one] | 10 to 50 | 100 to 1000
C[C@@H](Oc1ccc2c(-c3ccccc3Cl)ccnc2c1)C(=O)N1CCC[C@@H](C(=O)O)C1 [Compound 7, (3R)-1-[(2R)-2-[[4-(2-chlorophenyl)-7-quinolyl]oxy]propanoyl]piperidine-3-carboxylic acid] | < 10 | < 20
C[C@@H](Oc1ccc2c(-c3ccc(F)cc3Cl)ccnc2c1)C(=O)N1CCC2(COC2)C1 [Compound 213, (2R)-2-[[4-(2-chloro-4-fluoro-phenyl)-7-quinolyl]oxy]-1-(2-oxa-7-azaspiro[3.4]octan-7-yl)propan-1-one] | 50 to 500 | 100 to 1000
